Measured values: publication PMC6194685, “The antityrosinase and antioxidant activities of flavonoids dominated by the number and location of phenolic hydroxyl groups” (Chinese Medicine, 2018)

Columns and labels:
mushroom tyrosinase [1] = biological target: T1, mushroom tyrosinase (Agaricus bisporus, UniProt C7FF04); experiment: Determination of the inhibition type and inhibition constant (Lineweaver–Burk plots); type: biochemical; details: for inhibition type: Lineweaver–Burk double-reciprocal plots, tyrosinase diphenolase; for KIS (inhibitor binding with enzyme–substrate complex): plot of vertical intercept (1/Vmapp) versus inhibitor concentration, oxidation of L-DOPA
Description: By Lineweaver–Burk plot, the inhibition type was assayed. The inhibition constant was assayed by the second plots of the apparent Km/Vmapp or 1/Vmapp versus the concentration of the inhibitor.

[2] = DPPH free radical scavenging activity; details: n = 3; read-out: IC50, DPPH free radical scavenging capacity
Description: According to the references of Lee et al., DPPH free radical scavenging capacity was measured. […] In room temperature and a dark environment, the reaction lasted 30 min. […] Each sample was examined in three times and averaged.

[3] = ABTS free radical scavenging activity; details: n = 3; read-out: IC50, ABTS free radical scavenging capacity
Description: According to the references of Wan et al., ABTS free radical scavenging capacity was measured. […] ABTS ^+ was produced by reacting 2.45 mmol/L potassium persulfate (K2S2O8) with the ABTS stock solution. The reaction lasted 12–16 h at room temperature in the dark. […] Samples (0.5 mL) were added to ABTS^+ (5 mL) for 6 min. The control group contains 0.5 mL of ethanol and 5 mL of ABTS^+ solution. Each sample was examined in three times and averaged.

[4] = Hydroxyl free radical scavenging activity; details: n = 3; read-out: IC50, hydroxyl free radical scavenging capacity
Description: In the tube, 0.2 mL of samples, 1 mL of PBS buffer (pH = 7.4),0.2 mL of 5 mmol/L phenanthroline, 0.2 mL of 7.5 mmol/L FeSO4, 0.2 mL of 0.05% H2O2, 3.2 mL of ethanol were added in turn for 20 min in 37 °C. The wavelength used was 536 nm. Each sample was examined in three times and averaged. The hydroxyl free radical scavenging activity was examined according to the formula:4 Hydroxylfreeradicalscavengingactivity%=AC-AS/AC×100% where AS is the absorbance value with samples and AC is the absorbance value without samples.

[5] = Superoxide free radical scavenging activity (pyrogallol self-oxidation); details: n = 3; read-out: IC50, superoxide free radical scavenging capacity
Description: According to the references of Shen et al., superoxide free radical scavenging capacity was measured using Varioskan Flash multifunction microplate reader (Thermo scientific, USA) and 96 wells plates. Each well was added 264 μL PBS buffer (pH = 8.2), 12 μL samples of different concentrations, 25 °C for 10 min. Then 24 μL of 1.25 mmoL/L pyrogallol solution was added and shaken 3 s quickly. The blank group is ethanol. Absorbance values were measured every 30 s. The reaction lasted 5 min in 37 °C. The wavelength used was 320 nm. Each sample was measured in triplicate and averaged. The slope is the self-oxidation rate of pyrogallol. The lower slope indicated the better superoxide free radicals scavenging capacity. Each sample was examined in three times and averaged. The inhibitory rate was examined according to the formula:5 Superoxidefreeradicalscavengingactivity%=SC-SS/SC×100% where SC is the slope value without samples and SS is the slope value with samples.

[6] = tested on: lipid peroxidation in rat liver mitochondria; experiment: Lipid peroxidation assay in liver mitochondria in vitro (Fe2+/vitamin C); type: biochemical, Sprague–Dawley (SD) rats; details: n = 3, read-out: IC50, inhibiting lipid peroxidation
Description: Using the diagnostic kits from Biyuntian (Shanghai, China), liver mitochondria were obtained. The liver mitochondria from Sprague–Dawley (SD) rats were obtained, according to the references of Zuo et al.. In the tubes, 1 mL of mitochondria liquid, 0.5 mL of antioxidant solution, 0.25 mL of 1 mM Vitamin C, and 0.25 mL of 0.1 mM Fe^2+ were added in turn. The positive control group contains 0.5 mL of 0.05 M PBS buffer, instead of the antioxidant solution. The blank group was added 1 mL of mitochondrial liquid and 1 mL of 0.05 M PBS buffer. […] The test tubes were placed in the water for 30 min at 95 °C, then centrifuged for 10 min at 1372g. The wavelength used was 532 nm. Each sample was examined in three times and averaged.

mushroom tyrosinase [7] = biological target: T1, mushroom tyrosinase; experiment: Determination of the inhibition type and inhibition constant (Lineweaver–Burk plots); type: biochemical; details: plots of enzyme activity versus enzyme concentration, oxidation of L-DOPA
[8] = design: method as in Xu [31]; details: ref Xu [31]; cited from earlier work
[9] = design: method as in Xu [31]; details: ref Xu [31]; cited from earlier work; remark: listed apart in the source
[10] = design: method as in Xu [31]; details: ref Xu [31]; cited from earlier work; remark: listed apart in the source
[11] = discussion; no reference given; cited from earlier work
[12] = discussion; no reference given; cited from earlier work; remark: listed apart in the source

T1 sequence (C7FF04 2-392): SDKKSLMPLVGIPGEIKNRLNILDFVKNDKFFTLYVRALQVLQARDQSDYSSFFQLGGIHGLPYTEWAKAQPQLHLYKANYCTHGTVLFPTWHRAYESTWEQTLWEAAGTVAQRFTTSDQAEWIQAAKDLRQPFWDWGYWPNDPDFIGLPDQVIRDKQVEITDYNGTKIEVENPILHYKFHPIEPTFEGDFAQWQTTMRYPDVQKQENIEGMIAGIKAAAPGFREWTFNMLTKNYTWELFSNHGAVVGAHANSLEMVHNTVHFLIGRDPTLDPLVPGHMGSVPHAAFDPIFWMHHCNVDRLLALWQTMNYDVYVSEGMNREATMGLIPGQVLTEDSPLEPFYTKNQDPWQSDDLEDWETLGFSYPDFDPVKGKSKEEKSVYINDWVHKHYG
T1 sequence (G1K3P4 1-150 partner): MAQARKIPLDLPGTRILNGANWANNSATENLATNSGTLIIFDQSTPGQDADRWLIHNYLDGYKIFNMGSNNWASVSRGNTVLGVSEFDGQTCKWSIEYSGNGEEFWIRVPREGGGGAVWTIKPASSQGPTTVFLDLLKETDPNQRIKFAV

Row | Compound | inhibition type (mushroom tyrosinase [1]) | KIS (inhibitor binding with enzyme–substrate complex) (mushroom tyrosinase [1]) [µM] | IC50 [2] [µM] | IC50 [3] [µM] | IC50 [4] [µM] | IC50 [5] [µM] | IC50 [6] [µM] | inhibitory mechanism (reversibility) (mushroom tyrosinase [7]) | scavenging capacity of hydroxyl radical (·OH) [8] [%] | scavenging capacity of superoxide radical (O2·) [9] [%] | scavenging capacity of alkane radical (ROO·) [10] [%] | KIS (Fig. 3c) (mushroom tyrosinase [1]; plot of intercept versus concentration of shikonin) [µmol/L] | reducing ability [11] [%] | maximum inhibition, DPPH-radical scavenging assay [12] [%]
1 | O=c1cc(-c2ccccc2)oc2cc(O)c(O)c(O)c12 [Baicalein] | same inhibitor type as shikonin | 38.4 | 58.6 | 9.09 | 11.6 | 16.1 | 12.5 | reversible inhibitors | – | – | – | – | – | –
2 | O=C1c2c(O)cc(O)cc2O[C@H](c2cc(O)c(O)c(O)c2)[C@H]1O [Dihydromyricetin] | same inhibitor type as shikonin | 23.6 | 12.4 | 3.41 | 4.2 | 7.6 | 6.25 | reversible inhibitors | 83.9 | 90.0 | 63.9 | – | – | –
3 | O=C(/C=C/c1ccc(O)c(O)c1)O[C@H](Cc1ccc(O)c(O)c1)C(=O)O [Rosmarinic acid] | same inhibitor type as shikonin | 29.8 | 28.5 | 6.82 | 8.3 | 12.3 | 8.33 | reversible inhibitors | – | – | – | – | – | –
4 | CC(C)=CC[C@@H](O)C1=CC(=O)c2c(O)ccc(O)c2C1=O [Shikonin] | competitive–uncompetitive mixed type inhibitor | 48.6 | 83.2 | 27.3 | 18.3 | 31.5 | 16.7 | reversible inhibitor | – | – | – | 48.6 | 0.431 | –
5 | CC(C)=CCCC1=CC(=O)c2c(O)ccc(O)c2C1=O [deoxy-shikonin] | – | – | – | – | – | – | – | – | – | – | – | – | – | 0.440
6 | Isoeugenol | same inhibitor type as shikonin | 64.7 | 102 | 36.4 | 32.5 | 38.2 | 25.1 | reversible inhibitors | – | – | – | – | – | –
